Experimental data from patent US20240145091A1, “METHOD FOR MODULATING THE AMOUNT OF VIRUS, METHOD FOR TREATING OR […] […], METHOD FOR […] AMOUNT OF VIRUS, AND METHOD FOR PREDICTING THE PROGNOSIS OF VIRUS INFECTION DISEASE IN SUBJECT, AS WELL AS COMPOSITION AND SYSTEM FOR THE SAME” (National Institutes of Biomedical Innovation, Health and …, priority 2022, published 2024).

Experiments:
[1] = system: H1N1 influenza A/Puerto Rico/8/34 (PR8 influenza virus strain); test: Influenza model mice study: body weight and survival after D-amino acid administration; type: in vivo, C57BL6 mice
Source text: (§1) FIG. 1 is a schematic diagram showing the experimental protocol for D-AA administration (+D-AA) to IAV and Mock in Example 1. C57BL6 mice (SLC, Tokyo, Japan) raised in a specific pathogen control facility were used. In order to increase the amount of virus in the mice in a short period of time, […] water containing 50 times the TCID50 (median tissue culture infectious dose, 50% infectious dose) of H1N1 influenza A/Puerto Rico/8/34 (PR8 influenza virus strain (ATCC, Manassas, USA) was administered intranasally to anesthetized 4-week-old individuals to infect them. After infection, individuals in each group were weighed and blood samples were collected on a predetermined schedule, and plasma chiral amino acids (D-amino acids and L-amino acids) were quantitatively analyzed by 2D-HPLC.

[2] = system: H1N1 influenza A/Puerto Rico/8/34 (PR8 influenza virus strain); test: Viral plaque quantification assay of lung tissue in influenza model mice; type: in vivo, C57BL6 mice; settings: FIG. 3A; day 5 after D-Ala administration; IAV+D-Ala vs IAV group, n=3 to 7
Source text: as §1
FIG. 3A is a graph showing the results of the viral plaque quantification assay of lung tissue on day 5 after D-Ala administration in the Mock, IAV, and IAV+D-Ala groups (n=3 to 7) in Example 1.

[3] = system: SARS-CoV-2; test: COVID-19 model mice study: body weight and survival after D-Ala administration; type: in vivo, CAG-hACE2 mice
Procedure: FIG. 10 is a schematic diagram of the experimental protocol using coronavirus-infected mice in Example 2. CAG-hACE2 mice susceptible to SARS-CoV-2, which were developed at the National Institute of Biomedical Innovation, Health and Nutrition, were used. 2×10^2 to 10^4 of TCID50 of SARS-CoV-2 was administered to anesthetized 8—to 12-week-old individuals for bronchial infection to create a mouse model of coronavirus infection (Non-Patent Literature 9).
FIG. 12 is a schematic diagram of the experimental schedule of D-Ala administration to coronavirus-infected mice in Example 2. 8—to 12-week-old male and female CAG-hACE2 mice were subjected to intraperitoneal administration with a predetermined dose of D-Ala twice daily, which was stared from 2 days prior to the experiment. The mice were then infected with SARS-CoV-2 via the respiratory tract.

[4] = FIG. 8, IAV (Vehicle), IAV+D-Ser, IAV+D-Ala groups
[5] = FIG. 9, IAV (Vehicle), IAV+D-Ser, IAV+D-Ala groups

SMILES | survival curves, Kaplan-Meier analysis with death as the endpoint [1, 4] | rates of change in body weight [1, 5] | rates of change in body weight ([1]; FIG. 2, IAV+D-Ala vs IAV group, n=3-10, *P<0.05) | survival curves, Kaplan-Meier analysis with death as the endpoint ([1]; FIG. 4, Mock, Mock+D-Ala, IAV, IAV+D-Ala groups, n=3-10) | amount of virus, viral plaque quantification assay of lung tissue [2] | survival curves, Kaplan-Meier analysis with death as the endpoint ([3]; FIG. 14, SCV (Vehicle) vs SCV+D-Ala) | rates of change in body weights over time ([3]; FIG. 17, SCV (Vehicle) vs SCV+D-Ala) | survival curves, Kaplan-Meier analysis with weight loss and death as composite endpoints ([3]; FIG. 18, SCV (Vehicle) vs SCV+D-Ala) | survival curves by blood D-Ala level, Kaplan-Meier analysis with death as the endpoint ([3]; FIG. 19, SCV+D-Ala group split into high (>4.72 μM) and low (<4.72 μM) BD-Ala)
N[C@H](CO)C(=O)O [D-Ser, D-serine] | suppressed the mortality | rates of weight loss were suppressed |  |  |  |  |  |  | 
C[C@@H](N)C(=O)O [D-Ala, D-alanine] | suppressed the mortality | rates of weight loss were suppressed | rates of weight loss were suppressed | suppressed the mortality rate | increase in the amount of virus in the IAV+D-Ala group was suppressed | suppressed the mortality | smaller rate of decrease in body weights | suppressed the weight loss and the mortality | better prognosis
